Settings: female, human, in vivo, sc, 1 mg
Procedure: The presently disclosed embodiments may include a technology platform employing enteric coating and permeation enhancement to enable systemic delivery of peptides via the oral route. To determine whether the oral formulation described herein enables systemic delivery of therapeutic doses of the GnRH agonist leuprolide via oral route, a randomized, four-period, four-treatment, crossover pharmacokinetic and food effect study was conducted in 14 healthy female volunteers, which compared PK profiles following single administrations of 1 and 4 mg of leuprolide—the latter under both fasting and fed conditions—to that of a single subcutaneous injection of 1 mg of leuprolide acetate.
Study objectives were to assess the relative bioavailability, dose proportionality, safety and tolerability of orally-administered leuprolide, as well as the effect of food on drug absorption. Frequent blood sampling for 24 hours followed each dose, and each treatment was separated by 7 days. […] The ‘fed’ condition involved consumption of a high-fat, high-calorie meal 30 minutes prior to drug administration.

- Mean AUC0-24h: 163.0 ± 18.8 ng·h/mL
- Mean Cmax: 59.4 ± 9.1 ng/mL
- Mean Tmax: 3.49 ± 0.23 h
Compound: CCNC(=O)[C@@H]1CCCN1C(=O)[C@H](CCCNC(=N)N)NC(=O)[C@H](CC(C)C)NC(=O)[C@@H](CC(C)C)NC(=O)[C@H](Cc1ccc(O)cc1)NC(=O)[C@H](CO)NC(=O)[C@H](Cc1c[nH]c2ccccc12)NC(=O)[C@H](Cc1c[nH]cn1)NC(=O)[C@@H]1CCC(=O)N1 [sc leuprolide, leuprolide acetate]

— patent US20250073309A1, “METHODS OF TREATMENT OF PEDIATRIC PUBERTY USING ORAL FORMULATIONS OF LEUPROLIDE” (Enteris Biopharma, Inc., priority 2021, published 2025)
